Source: patent publication EP2257297B1, “COMPOUNDS FOR USE IN THE TREATMENT OF ACNE, SEBORRHOEA AND SEBHORROEIC DERMATITIS, OR FOR REDUCING SEBUM SECRETION” (priority 2008, dated 2009)

Each compound was assayed against T1, human MC5R (Homo sapiens, UniProt P33032) (assay: Human MC5R radioligand binding assay ([125I] NDP-MSH displacement, hMC5R membranes)). Details: not given.
T1 construct: purchased Perkin Elmer RBXMC5M400UA
Experimental: After incubation for 10 mins the phosphate buffer containing the iodine was added to NDP-MSH (10 ul at 1 mg/mL) in a separate eppendorf tube. This was incubated for a further 10 mins.
Resuspended membranes were kept on ice until they were added to the wells of the plate.
Assays were performed in 96 well polypropylene plates. […] This was incubated for 1 hr at 37 °C. Non-specific binding was determined with […] NDP-MSH. Plates were filtered using a Tomtec cell harvester with GF/A filters (Wallac) (presoaked in 0.6% polyethylenimine) and washed three times with 1.0 mL ice-cold wash buffer (the above incubation buffer without 1,10-phenanthroline and Complete™ protease inhibitor tablet). The filters were dried in a 37 °C oven, placed in a sample bag and 5 mL Betaplatescint (Wallac) was added. Prepared filters were counted in cassettes in a Microbeta Trilux (Wallac) for 1 min. […] Data analysis was performed using GraphPad Prism 4, employing competition binding with a single site model and a fixed Hill coefficient. The following equation was used: Y = Bottom + (Top-Bottom)/1/10^(X-logEC50), where X = log(concentration) and Y = binding to fit the data.

T1 sequence (P33032 whole entry): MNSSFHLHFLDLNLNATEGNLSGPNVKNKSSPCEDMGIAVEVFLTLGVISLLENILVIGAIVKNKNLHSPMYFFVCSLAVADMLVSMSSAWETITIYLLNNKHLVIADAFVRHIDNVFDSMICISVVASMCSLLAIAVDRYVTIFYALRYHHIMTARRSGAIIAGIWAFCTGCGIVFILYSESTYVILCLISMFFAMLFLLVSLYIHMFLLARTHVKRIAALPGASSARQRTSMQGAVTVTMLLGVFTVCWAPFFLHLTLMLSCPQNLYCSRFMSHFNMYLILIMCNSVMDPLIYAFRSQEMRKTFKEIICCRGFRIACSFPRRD

SMILES	IC50 [nM]
CC[C@@H](CN1CC[C@@H](CNC(=O)c2ccc(Cl)c(Cl)c2)N[C@@H](CCN)C1=O)C(C)C (racemic) [Compound 489, N-(((3S,5S)-3-(2-aminoethyl)-1-((R)-2-ethyl-3-methylbutyl)-2-oxo-1,4-diazepan-5-yl)methyl)-3,4-dichlorobenzamide]	< 10000

Same assay, conditions: hMC5R assay as in Example 102; compounds tested as trifluoroacetate or hydrochloride salts, or as free base

SMILES	IC50 [nM]
N=C(N)NCCC[C@@H]1N[C@H](CNC(=O)c2cc3ccccc3cn2)CCN(CC(c2ccccc2)c2ccccc2)C1=O [Compound 114, N-(((3S,5S)-1-(2,2-diphenylethyl)-3-(3-guanidinopropyl)-2-oxo-1,4-diazepan-5-yl)methyl)isoquinoline-3-carboxamide]	< 1000
Cc1cccc(/C=C/C(=O)NC[C@@H]2CCN(CC(c3ccccc3)c3ccccc3)C(=O)[C@H](CCCNC(=N)N)N2)c1 [Compound 191, (E)-N-(((3S,5S)-1-(2,2-diphenylethyl)-3-(3-guanidinopropyl)-2-oxo-1,4-diazepan-5-yl)methyl)-3-m-tolylacrylamide]	< 100
N=C(N)NCCC[C@@H]1N[C@H](CNC(=O)c2ccc3cc(F)ccc3c2)CCN(CC(c2ccccc2)c2ccccc2)C1=O [Compound 188, N-(((3S,5S)-1-(2,2-diphenylethyl)-3-(3-guanidinopropyl)-2-oxo-1,4-diazepan-5-yl)methyl)-6-fluoro-2-naphthamide]	< 100
NCCC[C@@H]1N[C@H](CNC(=O)/C=C/c2ccc(Cl)cc2)CCN(CC(c2ccccc2)c2ccccc2)C1=O [Compound 214, (E)-N-(((3S,5S)-3-(3-aminopropyl)-1-(2,2-diphenylethyl)-2-oxo-1,4-diazepan-5-yl)methyl)-3-(4-chlorophenyl)acrylamide]	< 100
NCCC[C@@H]1N[C@H](CNC(=O)/C=C/c2ccc3ccccc3c2)CCN(CC(c2ccccc2)c2ccccc2)C1=O [Compound 235, (E)-N-(((3S,5S)-3-(3-aminopropyl)-1-(2,2-diphenylethyl)-2-oxo-1,4-diazepan-5-yl)methyl)-3-(naphthalen-2-yl)acrylamide]	< 1000
NCC[C@@H]1N[C@H](CNC(=O)c2ccc(Cl)c(Cl)c2)CCN(Cc2cc(Cl)cc(Cl)c2)C1=O [Compound 325, N-(((3S,5S)-3-(2-aminoethyl)-1-(3,5-dichlorobenzyl)-2-oxo-1,4-diazepan-5-yl)methyl)-3,4-dichlorobenzamide]	< 1000
CNCCC[C@@H]1N[C@H](CNC(=O)c2ccc3ccccc3c2)CCN(CC(c2ccccc2)c2ccccc2)C1=O [Compound 71, N-(((3S,5S)-1-(2,2-diphenylethyl)-3-(3-(methylamino)propyl)-2-oxo-1,4-diazepan-5-yl)methyl)-2-naphthamide]	< 1000
NCCC[C@@H]1N[C@H](CNC(=O)c2cc(-c3ccc(Cl)cc3)on2)CCN(CC(c2ccccc2)c2ccccc2)C1=O [Compound 240, N-(((3S,5S)-3-(3-aminopropyl)-1-(2,2-diphenylethyl)-2-oxo-1,4-diazepan-5-yl)methyl)-5-(4-chlorophenyl)isoxazole-3-carboxamide]	< 100
Cc1c(C(=O)NC[C@@H]2CCN(CC(c3ccccc3)c3ccccc3)C(=O)[C@H](CCCNC(=N)N)N2)cnn1-c1ccccc1 [Compound 186, N-(((3S,5S)-1-(2,2-diphenylethyl)-3-(3-guanidinopropyl)-2-oxo-1,4-diazepan-5-yl)methyl)-5-methyl-1-phenyl-1H-pyrazole-4-carboxamide]	< 100
NCC[C@@H]1N[C@H](CNC(=O)/C=C/c2ccc(Cl)cc2)CCN(CC(c2ccccc2)c2ccccc2)C1=O [Compound 283, (E)-N-(((3S,5S)-3-(2-aminoethyl)-1-(2,2-diphenylethyl)-2-oxo-1,4-diazepan-5-yl)methyl)-3-(4-chlorophenyl)acrylamide]	< 100
N=C(N)NCCC[C@@H]1N[C@H](CNC(=O)/C=C/c2cccc(O)c2)CCN(CC(c2ccccc2)c2ccccc2)C1=O [Compound 193, (E)-N-(((3S,5S)-1-(2,2-diphenylethyl)-3-(3-guanidinopropyl)-2-oxo-1,4-diazepan-5-yl)methyl)-3-(3-hydroxyphenyl)acrylamide]	< 1000
NCCC[C@@H]1N[C@H](CNC(=O)c2csc(-c3ccccc3)n2)CCN(CC(c2ccccc2)c2ccccc2)C1=O [Compound 242, N-(((3S,5S)-3-(3-aminopropyl)-1-(2,2-diphenylethyl)-2-oxo-1,4-diazepan-5-yl)methyl)-2-phenylthiazole-4-carboxamide]	< 1000
O=C(/C=C/c1ccc(Cl)cc1)NC[C@@H]1CCN(CC(c2ccccc2)c2ccccc2)C(=O)[C@H](CCNC(=O)CC2CCCCC2)N1 [Compound 307, (E)-3-(4-chlorophenyl)-N-(((3S,5S)-3-(2-(2-cyclohexylacetamido)ethyl)-1-(2,2-diphenylethyl)-2-oxo-1,4-diazepan-5-yl)methyl)acrylamide]	< 1000
Cc1cc(C)n(-c2ccc(C(=O)NC[C@@H]3CCN(CC(c4ccccc4)c4ccccc4)C(=O)[C@H](CCCN)N3)cc2)n1 [Compound 243, N-(((3S,5S)-3-(3-aminopropyl)-1-(2,2-diphenylethyl)-2-oxo-1,4-diazepan-5-yl)methyl)-4-(3,5-dimethyl-1H-pyrazol-1-yl)benzamide]	< 1000
N=C(N)NCCC[C@@H]1N[C@H](CNC(=O)Cc2ccc(Cl)cc2Cl)CCN(CC(c2ccccc2)c2ccccc2)C1=O [Compound 155, 2-(2,4-dichlorophenyl)-N-(((3S,5S)-1-(2,2-diphenylethyl)-3-(3-guanidinopropyl)-2-oxo-1,4-diazepan-5-yl)methyl)acetamide]	< 1000
CNC(=N)NCCC[C@@H]1N[C@H](CNC(=O)c2ccc3ccccc3c2)CCN(CC(c2ccccc2)c2ccccc2)C1=O [Compound 67, N-(((3S,5S)-1-(2,2-diphenylethyl)-3-(3-(3-methylguanidino)propyl)-2-oxo-1,4-diazepan-5-yl)methyl)-2-naphthamide]	< 10
COc1cc2ccccc2cc1C(=O)NC[C@@H]1CCN(CC(c2ccccc2)c2ccccc2)C(=O)[C@H](CCCNC(=N)N)N1 [Compound 163, N-(((3S,5S)-1-(2,2-diphenylethyl)-3-(3-guanidinopropyl)-2-oxo-1,4-diazepan-5-yl)methyl)-3-methoxy-2-naphthamide]	< 1000
Cc1ccc(C(=O)NC[C@@H]2CCN(CC(c3ccccc3)c3ccccc3)C(=O)[C@H](CCCN3CCCCC3)N2)cc1C [Compound 270, N-(((3S,5S)-1-(2,2-diphenylethyl)-2-oxo-3-(3-(piperidin-1-yl)propyl)-1,4-diazepan-5-yl)methyl)-3,4-dimethylbenzamide]	< 100
N=C(N)NCCC[C@@H]1N[C@H](CNC(=O)c2ccc3[nH]cnc3c2)CCN(CC(c2ccccc2)c2ccccc2)C1=O [Compound 149, N-(((3S,5S)-1-(2,2-diphenylethyl)-3-(3-guanidinopropyl)-2-oxo-1,4-diazepan-5-yl)methyl)-1H-benzo[d]imidazole-5-carboxamide]	< 10000
NCCC[C@@H]1N[C@H](CNC(=O)c2cc(-c3ccco3)on2)CCN(CC(c2ccccc2)c2ccccc2)C1=O [Compound 241, N-(((3S,5S)-3-(3-aminopropyl)-1-(2,2-diphenylethyl)-2-oxo-1,4-diazepan-5-yl)methyl)-5-(furan-2-yl)isoxazole-3-carboxamide]	< 1000
CC(C)N(CC[C@@H]1N[C@H](CCNC(=O)c2ccc(Cl)c(Cl)c2)CCN(CC(c2ccccc2)c2ccccc2)C1=O)C(C)C [Compound 363, 3,4-dichloro-N-(2-((3S,5R)-3-(2-(diisopropylamino)ethyl)-1-(2,2-diphenylethyl)-2-oxo-1,4-diazepan-5-yl)ethyl)benzamide]	< 10000
CC(C)(C)c1ccc(C(=O)NC[C@@H]2CCN(CC(c3ccccc3)c3ccccc3)C(=O)[C@H](CCCNC(=N)N)N2)cc1 [Compound 145, 4-tert-butyl-N-(((3S,5S)-1-(2,2-diphenylethyl)-3-(3-guanidinopropyl)-2-oxo-1,4-diazepan-5-yl)methyl)benzamide]	< 1000
CN(C)C(=N)NCCC[C@@H]1N[C@H](CNC(=O)c2ccc3ccccc3c2)CCN(CC(c2ccccc2)c2ccccc2)C1=O [Compound 216, N-(((3S,5S)-3-(3-(3,3-dimethylguanidino)propyl)-1-(2,2-diphenylethyl)-2-oxo-1,4-diazepan-5-yl)methyl)-2-naphthamide]	< 100
NCCC[C@@H]1N[C@H](CNC(=O)c2ccc3ccccc3c2)CCN(CC(c2ccccc2)c2ccccc2)C1=O [Compound 63, N-(((3S,5S)-3-(3-aminopropyl)-1-(2,2-diphenylethyl)-2-oxo-1,4-diazepan-5-yl)methyl)-2-naphthamide]	< 1000

Same assay, conditions: hMC5R binding assay as in Example 102; compounds tested as trifluoroacetate or hydrochloride salts, or as free base

SMILES	IC50 [nM]
CC[C@H](CN1CC[C@H](CNC(=O)c2ccc3cc(Cl)ccc3c2)N[C@H](CC(C)(C)N)C1=O)c1ccccc1 [Compound 494, N-(((3R,5R)-3-(2-amino-2-methylpropyl)-2-oxo-1-((S)-2-phenylbutyl)-1,4-diazepan-5-yl)methyl)-6-chloro-2-naphthamide]	< 10000
CC[C@H](CN1CC[C@@H](CNC(=O)c2ccc3cc(Cl)ccc3c2)N[C@@H](CCN2CCCCC2)C1=O)c1ccccc1 [Compound 569, 6-chloro-N-(([5-^13C,4-^15N](3S,5S)-2-oxo-1-((S)-2-phenylbutyl)-3-(2-(piperidin-1-yl)ethyl)-1,4-diazepan-5-yl)[^13C]methyl)-2-naphthamide]	< 10
